Conditions: 101.33 kPa, Liquid; for viscosity: Cone and plate viscometry; for mass density: Vibrating tube method

c1cn(CCOCCOCCOCCn2ccnc2)cn1
Conditions | mass density [kg/m3] | viscosity [mPa·s]
298.2 K | 1172.67 | 535.6
303.2 K | 1168.77 | 356
308.2 K | 1164.87 | 240.2
313.2 K | 1161.05 | 178.2
318.2 K | 1157.29 | 129.2
323.2 K | 1153.51 | 93.9
328.2 K | 1149.74 | 69.8
333.2 K | 1145.96 | 56.8
338.2 K | 1142.19 | 44.9
343.2 K | 1138.43 | 36.7
348.2 K | 1134.66 | 29.1
353.2 K | 1130.91 | 24.9

CCCCCCCCCCCCn1ccnc1 [1-dodecyl-1H-imidazole]
Conditions | mass density [kg/m3] | viscosity [mPa·s]
298.2 K | 898.68 | 24
303.2 K | 895.23 | 20.1
308.2 K | 891.79 | 15.9
313.2 K | 888.35 | 13.3
318.2 K | 884.92 | 11.1
323.2 K | 881.49 | 9.42
328.2 K | 878.07 | 8.06
333.2 K | 874.64 | 6.96
338.2 K | 871.22 | 6
343.2 K | 867.81 | 5.33
348.2 K | 864.4 | 4.7
353.2 K | 860.98 | 4.16

From the NIST ThermoML archive (doi:10.1016/j.fluid.2014.06.026)
